From ChEMBL document CHEMBL1146637, “Structure-activity relationship in the oxazolidinone-quinolone hybrid series: influence of the central spacer on the antibacterial activity and the mode of action” (Bioorg Med Chem Lett, 2003)
Values after ≈ are worked out from the molar mass of the structure shown.

Tested on: Escherichia coli
Assay: In vitro antibacterial activity against Escherichia coli ATCC 25922 (Ecol) was determined
Type: functional

| SMILES | MIC |
| --- | --- |
| CC(=O)NC[C@H]1CN(c2ccc(N3CCN(c4nc5c(cc4F)c(=O)c(C(=O)O)cn5C4CC4)CC3)c(F)c2)C(=O)O1 | 32 µg/mL (≈ 54.9 µM) |
| CC(=O)NC[C@H]1CN(c2ccc(O[C@H]3CCN(c4nc5c(cc4F)c(=O)c(C(=O)O)cn5C4CC4)C3)c(F)c2)C(=O)O1 | 1 µg/mL (≈ 1.71 µM) |
| O=C(O)c1cn(C2CC2)c2cc(N3CCNCC3)c(F)cc2c1=O [CIPROFLOXACIN] | ≤ 0.03 µg/mL |
| CC(=O)NC[C@H]1CN(c2ccc(N3CCOCC3)c(F)c2)C(=O)O1 [LINEZOLID] | > 64 µg/mL |

Tested on: not listed separately
Assay: Inhibitory activity against Escherichia coli Topoisomerase IV in relaxation assay
Type: functional

| SMILES | IC50 |
| --- | --- |
| CC(=O)NC[C@H]1CN(c2ccc(N3CCN(c4nc5c(cc4F)c(=O)c(C(=O)O)cn5C4CC4)CC3)c(F)c2)C(=O)O1 | 10 µM |
| CC(=O)NC[C@H]1CN(c2ccc(O[C@H]3CCN(c4nc5c(cc4F)c(=O)c(C(=O)O)cn5C4CC4)C3)c(F)c2)C(=O)O1 | 3 µM |
| O=C(O)c1cn(C2CC2)c2cc(N3CCNCC3)c(F)cc2c1=O [CIPROFLOXACIN] | 2.5 µM |

Tested on: Staphylococcus aureus
Assay: In vitro antibacterial activity against […] Staphylococcus aureus ATCC 29213 (Saul)
Type: functional

| SMILES | MIC |
| --- | --- |
| CC(=O)NC[C@H]1CN(c2ccc(N3CCN(c4nc5c(cc4F)c(=O)c(C(=O)O)cn5C4CC4)CC3)c(F)c2)C(=O)O1 | 0.25 µg/mL (≈ 0.429 µM) |
| CC(=O)NC[C@H]1CN(c2ccc(O[C@H]3CCN(c4nc5c(cc4F)c(=O)c(C(=O)O)cn5C4CC4)C3)c(F)c2)C(=O)O1 | ≤ 0.06 µg/mL |
| O=C(O)c1cn(C2CC2)c2cc(N3CCNCC3)c(F)cc2c1=O [CIPROFLOXACIN] | 0.5 µg/mL (≈ 1.51 µM) |

Tested on: Enterococcus faecalis
Assay: In vitro antibacterial activity against Enterococcus faecalis ATCC 29212 (Efs) was determined
Type: functional

| SMILES | MIC |
| --- | --- |
| CC(=O)NC[C@H]1CN(c2ccc(N3CCN(c4nc5c(cc4F)c(=O)c(C(=O)O)cn5C4CC4)CC3)c(F)c2)C(=O)O1 | 0.125 µg/mL (≈ 0.215 µM) |
| CC(=O)NC[C@H]1CN(c2ccc(O[C@H]3CCN(c4nc5c(cc4F)c(=O)c(C(=O)O)cn5C4CC4)C3)c(F)c2)C(=O)O1 | 0.125 µg/mL (≈ 0.214 µM) |
| O=C(O)c1cn(C2CC2)c2cc(N3CCNCC3)c(F)cc2c1=O [CIPROFLOXACIN] | 1 µg/mL (≈ 3.02 µM) |

Tested on: Staphylococcus aureus
Assay: In vitro antibacterial activity against ciprofloxacin and methicillin resistant Staphylococcus aureus (Sau2CIP) was determined
Type: functional

| SMILES | MIC |
| --- | --- |
| CC(=O)NC[C@H]1CN(c2ccc(N3CCN(c4nc5c(cc4F)c(=O)c(C(=O)O)cn5C4CC4)CC3)c(F)c2)C(=O)O1 | 0.25 µg/mL (≈ 0.429 µM) |
| CC(=O)NC[C@H]1CN(c2ccc(O[C@H]3CCN(c4nc5c(cc4F)c(=O)c(C(=O)O)cn5C4CC4)C3)c(F)c2)C(=O)O1 | 0.25 µg/mL (≈ 0.428 µM) |
| O=C(O)c1cn(C2CC2)c2cc(N3CCNCC3)c(F)cc2c1=O [CIPROFLOXACIN] | > 32 µg/mL |
| CC(=O)NC[C@H]1CN(c2ccc(N3CCOCC3)c(F)c2)C(=O)O1 [LINEZOLID] | 1 µg/mL (≈ 2.96 µM) |

Biological target: DNA gyrase (Escherichia coli, UniProt P0AES4+P0AES6)
Assay: Inhibitory activity against DNA gyrase enzyme was determined by supercoiling assay with Escherichia coli DNA gyrase
Type: protein-complex assay

| SMILES | IC50 |
| --- | --- |
| CC(=O)NC[C@H]1CN(c2ccc(N3CCN(c4nc5c(cc4F)c(=O)c(C(=O)O)cn5C4CC4)CC3)c(F)c2)C(=O)O1 | 50 µM |
| CC(=O)NC[C@H]1CN(c2ccc(O[C@H]3CCN(c4nc5c(cc4F)c(=O)c(C(=O)O)cn5C4CC4)C3)c(F)c2)C(=O)O1 | 10 µM |

Tested on: Enterococcus faecium
Assay: In vitro antibacterial activity against vancomycin and ciprofloxacin resistant Enterococcus faecium (Efm CIP) was determined
Type: functional

| SMILES | MIC |
| --- | --- |
| CC(=O)NC[C@H]1CN(c2ccc(N3CCN(c4nc5c(cc4F)c(=O)c(C(=O)O)cn5C4CC4)CC3)c(F)c2)C(=O)O1 | 0.25 µg/mL (≈ 0.429 µM) |
| CC(=O)NC[C@H]1CN(c2ccc(O[C@H]3CCN(c4nc5c(cc4F)c(=O)c(C(=O)O)cn5C4CC4)C3)c(F)c2)C(=O)O1 | 1 µg/mL (≈ 1.71 µM) |
| O=C(O)c1cn(C2CC2)c2cc(N3CCNCC3)c(F)cc2c1=O [CIPROFLOXACIN] | > 32 µg/mL |
| CC(=O)NC[C@H]1CN(c2ccc(N3CCOCC3)c(F)c2)C(=O)O1 [LINEZOLID] | 2 µg/mL (≈ 5.93 µM) |

Tested on: Escherichia coli
Assay: In vitro inhibitory activity against protein synthesis was determined by transcription/translation assay with Escherichia coli S30 Extract System.
Type: functional

| SMILES | IC50 |
| --- | --- |
| CC(=O)NC[C@H]1CN(c2ccc(N3CCN(c4nc5c(cc4F)c(=O)c(C(=O)O)cn5C4CC4)CC3)c(F)c2)C(=O)O1 | 2.8 µM |
| CC(=O)NC[C@H]1CN(c2ccc(O[C@H]3CCN(c4nc5c(cc4F)c(=O)c(C(=O)O)cn5C4CC4)C3)c(F)c2)C(=O)O1 | 6.7 µM |
| O=C(O)c1cn(C2CC2)c2cc(N3CCNCC3)c(F)cc2c1=O [CIPROFLOXACIN] | > 20 µM |
| CC(=O)NC[C@H]1CN(c2ccc(N3CCOCC3)c(F)c2)C(=O)O1 [LINEZOLID] | 4.1 µM |

Tested on: Haemophilus influenzae
Assay: In vitro antibacterial activity against Haemophilus influenzae 11 (Hin) was determined
Type: functional

| SMILES | MIC |
| --- | --- |
| CC(=O)NC[C@H]1CN(c2ccc(N3CCN(c4nc5c(cc4F)c(=O)c(C(=O)O)cn5C4CC4)CC3)c(F)c2)C(=O)O1 | 1 µg/mL (≈ 1.72 µM) |
| CC(=O)NC[C@H]1CN(c2ccc(O[C@H]3CCN(c4nc5c(cc4F)c(=O)c(C(=O)O)cn5C4CC4)C3)c(F)c2)C(=O)O1 | ≤ 0.06 µg/mL |
| O=C(O)c1cn(C2CC2)c2cc(N3CCNCC3)c(F)cc2c1=O [CIPROFLOXACIN] | ≤ 0.03 µg/mL |
| CC(=O)NC[C@H]1CN(c2ccc(N3CCOCC3)c(F)c2)C(=O)O1 [LINEZOLID] | 8 µg/mL (≈ 23.7 µM) |

Tested on: Escherichia coli
Assay: In vitro antibacterial activity against Escherichia coli AS19 (Eco2), permeable mutant was determined
Type: functional

| SMILES | MIC |
| --- | --- |
| CC(=O)NC[C@H]1CN(c2ccc(N3CCN(c4nc5c(cc4F)c(=O)c(C(=O)O)cn5C4CC4)CC3)c(F)c2)C(=O)O1 | 0.06 µg/mL (≈ 0.103 µM) |
| CC(=O)NC[C@H]1CN(c2ccc(O[C@H]3CCN(c4nc5c(cc4F)c(=O)c(C(=O)O)cn5C4CC4)C3)c(F)c2)C(=O)O1 | ≤ 0.06 µg/mL |
| O=C(O)c1cn(C2CC2)c2cc(N3CCNCC3)c(F)cc2c1=O [CIPROFLOXACIN] | ≤ 0.03 µg/mL |
| CC(=O)NC[C@H]1CN(c2ccc(N3CCOCC3)c(F)c2)C(=O)O1 [LINEZOLID] | 8 µg/mL (≈ 23.7 µM) |

Tested on: Staphylococcus aureus
Assay: In vitro antibacterial activity against oxazolidinone Linezolid resistant Staphylococcus aureus (Sau3LZD) was determined
Type: functional

| SMILES | MIC |
| --- | --- |
| CC(=O)NC[C@H]1CN(c2ccc(N3CCN(c4nc5c(cc4F)c(=O)c(C(=O)O)cn5C4CC4)CC3)c(F)c2)C(=O)O1 | 8 µg/mL (≈ 13.7 µM) |
| CC(=O)NC[C@H]1CN(c2ccc(O[C@H]3CCN(c4nc5c(cc4F)c(=O)c(C(=O)O)cn5C4CC4)C3)c(F)c2)C(=O)O1 | ≤ 0.06 µg/mL |
| O=C(O)c1cn(C2CC2)c2cc(N3CCNCC3)c(F)cc2c1=O [CIPROFLOXACIN] | 0.5 µg/mL (≈ 1.51 µM) |
| CC(=O)NC[C@H]1CN(c2ccc(N3CCOCC3)c(F)c2)C(=O)O1 [LINEZOLID] | 64 µg/mL (≈ 190 µM) |
